According to ChEMBL document CHEMBL1201862, “PubChem BioAssay data set” (2004):
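How tested: cells in 96-well plates exposed to compound for 48 hours at five concentrations. Abbreviation: GI50, concentration required for 50% inhibition of growth.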 Active and inactive are the calls of the source. Rule as the data show it: active = GI50 up to about 1.1 µM and inactive = higher.

Experiments:
Experiment in all cases: NCI tumour cell line growth inhibition, 48 h
DLD-1 = tested on: DLD-1
HOP-18 = tested on: HOP-18
KM-20L2 = tested on: KM-20L2
LXFL 529 = tested on: LXFL 529
RXF 631 = tested on: RXF 631
SNB-78 = tested on: SNB-78
XF498 = tested on: XF498

Measured: GI50

COC(=O)N/N=c1\cc(C(=O)Nc2ccc(C)c(C)c2)oc2cc(O)ccc12
inactive: DLD-1 > 100 µM | HOP-18 > 100 µM | KM-20L2 > 100 µM | LXFL 529 > 100 µM | RXF 631 > 100 µM | SNB-78 > 100 µM | XF498 > 100 µM
